# In patent US20220194938A1, “NOVEL COMPOUNDS AND PHARMACEUTICAL COMPOSITIONS THEREOF FOR THE TREATMENT OF INFLAMMATORY DISORDERS” (GALAPAGOS NV, priority 2019, published 2022):
# Legend:
# [1] = biological target: T1, human IRAK-4 (Homo sapiens, UniProt Q9NWZ3); assay: Phosphorylation IC50 determination for human IRAK-4 (ADP-Glo kinase assay); details: human IRAK-4, RIP140 substrate, Km ATP; read-out: IRAK4 ADPglo biochemical assay IC50
# T1 construct: purchased Carna Biosciences 09 145
# T1 sequence (Q9NWZ3 1-460): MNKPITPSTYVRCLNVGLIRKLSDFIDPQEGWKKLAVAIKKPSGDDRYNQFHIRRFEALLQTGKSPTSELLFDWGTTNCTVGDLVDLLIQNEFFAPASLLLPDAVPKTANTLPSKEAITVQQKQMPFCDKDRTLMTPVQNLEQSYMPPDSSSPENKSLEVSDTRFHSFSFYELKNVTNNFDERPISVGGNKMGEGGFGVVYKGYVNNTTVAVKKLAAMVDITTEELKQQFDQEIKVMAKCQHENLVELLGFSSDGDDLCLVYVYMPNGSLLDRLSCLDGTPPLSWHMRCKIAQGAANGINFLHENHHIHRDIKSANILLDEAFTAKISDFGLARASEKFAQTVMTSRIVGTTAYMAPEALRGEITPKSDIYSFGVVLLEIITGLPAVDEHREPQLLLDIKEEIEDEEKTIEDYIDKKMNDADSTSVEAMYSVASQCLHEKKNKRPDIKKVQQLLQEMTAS
# Procedure: 3.1. Phosphorylation IC50 Determination for Human IRAK-4
# The phosphorylation of the substrate RIP140 (SEQ ID1) by IRAK4 at Km ATP was detected with the ADP-Glo Kinase Assay (Promega, Cat #V9103), a luminescent kinase assay which measures the ADP formed from a kinase reaction. (Zegzouti et al. 2009) In a second step the kinase reaction was terminated and all the remaining ATP was depleted. In a final step the ADP was converted into ATP and this newly synthesized ATP was measured by using a luciferase/luciferin reaction with a luminescent reader. The luminescent signal positively correlated with kinase activity, in particular kinase inhibition giving a decrease of the luminescent signal.
# For the semi-automated assay, the positive control (100% inhibition) was prepared by diluting 10 mM staurosporine stock mixture (20 μL) in water (3.8 mL) and DMSO (180 μL), thus resulting in a […] staurosporine solution at 1% DMSO (final concentration after further dilution in the kinase reaction).
# For the automated assay, no pre-dilution of the 10 mM staurosporine stock was made. 10 mM staurosporine was spotted directly in the assay plate using acoustic dispensing and complemented with DMSO to result in a similar final concentration as mentioned above.
# For the semi-automated assay, the negative control (0% inhibition) was prepared by mixing water (3.8 mL) and DMSO (200 μL) resulting in a final concentration of 1% DMSO after further dilution in the kinase reaction. For the automated assay no pre-dilution of DMSO was done. 100% DMSO was spotted directly on the assay plate.
# The assay buffer solution was prepared at a concentration corresponding to 5 fold the final (most diluted) assay concentration by mixing a solution of 125 mM TRIS pH 7.5+0.05% Triton X-100+2.5 mM EGTA (5.27 mL) with 1M mgCl2 (72 μL), 1M DTT (57.6 μL), and 200 mM MnCl2 (360 μL).
# For example, for the semi-automated method, the enzyme-substrate mixture was prepared by mixing water (3999 μL), assay buffer solution (1380 μL), 1 mM RIP140 (138 μL—SEQ ID1), and 200 ng/mL IRAK 4 (3.45 μL Carna Biosciences, 09 145).
# For semi-automated method, the ATP mixture was prepared at a concentration corresponding to 2.5 fold the final (most diluted) assay concentration of the semi-automated method and 1.5 fold the final (most diluted) assay concentration of the automated method. For example, for the semi-automated method, the ATP mixture was prepared by mixing water (4126 μL), assay buffer solution (1380 μL), and 10 mM ATP (13.80 μL).
# The assay was performed either in a semi-automated or fully automated manner. The assay volume and the incubation time of the ADP detection were different accordingly the method used.
# 3.1.3.1. Semi-Automated Assay
# The compounds were prepared as a serial dilution of 10 point dose responses with 1/5 dilution steps in 100% DMSO starting from 2 mM highest concentration, diluted 1/20 in water. 1 μL was transferred dry to the assay plates.
# On each assay plate 32 wells of each control (positive & negative) were added, followed by 2 μL enzyme-substrate mixture.
# The reaction was started by adding 2 μL diluted ATP (final concentration Km ATP) on the assay plates. Plates were centrifuged for a few seconds at 1000 rpm followed by an incubation at r.t. for 120 min.
# The reactions were stopped and the unconsumed ATP was depleted by adding 5 μL ADP-glo Reagent (Promega, Cat #V9103) to the reaction. The plates were quickly centrifuged at 1000 rpm and incubated at r.t. for 40 min corresponding to full ATP depletion.
# The ADP was converted back to ATP and luciferase and luciferin were introduced to detect ATP by adding 10 μL kinase detection reagent (Promega, Cat #V9103) to the reaction. The plates were centrifuged for a few seconds at 1000 rpm and incubated at r.t. for a further 30 min.
# Luminescent read out was performed on an Envision luminescent reader (Perkin Elmer). […]
# [2] = tested on: pooled cryopreserved hepatocytes; assay: Metabolic stability in hepatocytes (mouse); type: in vitro ADME; details: 1 μM test compound
# Procedure: (§1) 4.6. Metabolic Stability in Hepatocytes
# (§2) The aim of this assay is to determine the metabolic stability of the compound in hepatocytes (cryopreserved) of different species. Low hepatocyte stability may result in the formation of unwanted metabolites, high clearance, and therefore is not desirable.
# (§3) The decrease in parent was assessed by measuring the percentage remaining by LC-MS/MS analysis.
# (§4) A 10 mM stock solution of test compound in DMSO was first diluted in DMSO to 3 mM, and then in modified Krebs-Henseleit buffer (Sigma, K3753) to 5 μM. This compound dilution was added to a suspension of pooled cryopreserved hepatocytes (BioreclamationIVT) at 37° C. under gentle shaking.
# (§5) Final reaction conditions were: 1 μM of test compound, 0.03% DMSO, 0.5 million viable hepatocytes/mL, and 75 μL incubation volume.
# (§6) Testosterone (1 μM) and 7-hydroxycoumarin (1 μM) were used, respectively as phase I and phase II metabolic reaction controls.
# (§7) After 0, 10, 20, 45, 90, 120 and 180 min of incubation, the reaction was terminated with 225 μL of MeCN:MeOH (2:1) containing 100 ng/mL of diclofenac as analytical internal standard. Samples were mixed, centrifuged and the supernatant analyzed by LC-MS/MS.
# (§8) The instrument responses (ratios of test compound and internal standard peak areas) were referenced to the zero time point samples (considered as 100%) in order to determine the percentage of compound remaining.
# (§9) Plots of percentage compound remaining are used to determine the intrinsic clearance in the hepatocyte incubations using the following equations:
# (§10) Scaled Clint[L/h/kg]=Clint[μL/min/10^6 cells]*#(10^6) cells/g liver*60*(1/10^6) Scaled Clint unbound [L/h/kg]=Clint [L/h/kg]/Fu,inc where: fu,inc equals hepatocyte binding, derived from microsomal binding (fu,mic) by following equation: […]
# [3] = tested on: pooled cryopreserved hepatocytes; assay: Metabolic stability in hepatocytes (human); type: in vitro ADME; details: 1 μM test compound
# Procedure: as §1, §2, §3, §4, §5, §6, §7, §8, §9, §10
SMILES,IC50 [1],Mouse (Perc. remaining at 90 min) [2],Human (Perc. remaining at 90 min) [3]
"COc1cc2nc(CCC(C)(C)O)cn2cc1NC(=O)c1nc(C)ccc1Cl [Compound 11, 3-chloro-N-[2-(3-hydroxy-3-methyl-butyl)-7-methoxy-imidazo[1,2-a]pyridin-6-yl]-6-methyl-pyridine-2-carboxamide]",> 50 nM,–,–
"COc1cc2nc(CCC(C)(C)O)cn2cc1NC(=O)c1cncc(C)n1 [Compound 16, N-[2-(3-hydroxy-3-methyl-butyl)-7-methoxy-imidazo[1,2-a]pyridin-6-yl]-6-methyl-pyrazine-2-carboxamide]",10 to 50 nM,74.55%,29.2%
"COc1cc2nc(CCC(C)(C)O)cn2cc1NC(=O)c1cncc(C(F)(F)F)n1 [Compound 17, N-[2-(3-hydroxy-3-methyl-butyl)-7-methoxy-imidazo[1,2-a]pyridin-6-yl]-6-(trifluoromethyl)pyrazine-2-carboxamide]",10 to 50 nM,–,–
"COc1cc2nc(CCC(C)(C)O)cn2cc1NC(=O)c1cccn(C(C)C)c1=O [Compound 22, N-[2-(3-hydroxy-3-methyl-butyl)-7-methoxy-imidazo[1,2-a]pyridin-6-yl]-1-isopropyl-2-oxo-pyridine-3-carboxamide]",10 to 50 nM,74.1%,99.75%
"CNC(=O)c1cc2nc(CCS(C)(=O)=O)cn2cc1NC(=O)c1cccc(C(F)(F)F)n1 [Compound 30, N-methyl-2-(2-methylsulfonylethyl)-6-[[6-(trifluoromethyl)pyridine-2-carbonyl]amino]imidazo[1,2-a]pyridine-7-carboxamide]",10 to 50 nM,–,–
"COc1cc2nc(CCC(C)(C)O)cn2cc1NC(=O)c1ccc(F)c(Cl)n1 [Compound 32, 6-chloro-5-fluoro-N-[2-(3-hydroxy-3-methylbutyl)-7-methoxyimidazo[1,2-a]pyridin-6-yl]pyridine-2-carboxamide]",10 to 50 nM,–,–
"CC(C)(O)CCc1cn2cc(NC(=O)c3cccc(C(F)(F)F)n3)c(C(=O)NC3COC3)cc2n1 [Compound 44, 2-(3-hydroxy-3-methylbutyl)-N-(oxetan-3-yl)-6-(6-(trifluoromethyl)picolinamido)imidazo[1,2-a]pyridine-7-carboxamide]",5 to 10 nM,–,–
"CC(C)(O)CCc1cn2cc(NC(=O)c3cccc(C(F)(F)F)n3)c(C(=O)NCC3CC3)cc2n1 [Compound 45, N-(cyclopropylmethyl)-2-(3-hydroxy-3-methylbutyl)-6-(6-(trifluoromethyl)picolinamido)imidazo[1,2-a]pyridine-7-carboxamide]",5 to 10 nM,–,–
"CC(C)(O)CCc1cn2cc(NC(=O)c3cccc(C(F)(F)F)n3)c(C(=O)NC3(C)CC3)cc2n1 [Compound 46, 2-(3-hydroxy-3-methylbutyl)-N-(1-methylcyclopropyl)-6-(6-(trifluoromethyl)picolinamido)imidazo[1,2-a]pyridine-7-carboxamide]",5 to 10 nM,–,–
"CC(C)(O)CCc1cn2cc(NC(=O)c3cccc(C(F)(F)F)n3)c(C(=O)NC3CCOC3)cc2n1 (stereo not shown) [Compound 47, 2-(3-hydroxy-3-methylbutyl)-N-(tetrahydrofuran-3-yl)-6-(6-(trifluoromethyl)picolinamido)imidazo[1,2-a]pyridine-7-carboxamide]",5 to 10 nM,–,–

# More lines, now with the values ahead:
IC50 [1],Mouse (Perc. remaining at 90 min) [2],Human (Perc. remaining at 90 min) [3],SMILES
5 to 10 nM,–,–,"COc1cc2nc(CCC(C)(C)O)cn2cc1NC(=O)c1cccnc1O [Compound 9, 2-hydroxy-N-[2-(3-hydroxy-3-methyl-butyl)-7-methoxy-imidazo[1,2-a]pyridin-6-yl]pyridine-3-carboxamide]"
5 to 10 nM,23.5%,89.95%,"COc1cc2nc(CCC(C)(C)O)cn2cc1NC(=O)c1cccc(CC#N)n1 [Compound 14, 6-(cyanomethyl)-N-[2-(3-hydroxy-3-methyl-butyl)-7-methoxy-imidazo[1,2-a]pyridin-6-yl]pyridine-2-carboxamide]"
0.1 to 5 nM,60.05%,48.5%,"COc1cc2nc(CCC(C)(C)O)cn2cc1NC(=O)c1ccc(F)c(C)n1 [Compound 15, 5-fluoro-N-[2-(3-hydroxy-3-methyl-butyl)-7-methoxy-imidazo[1,2-a]pyridin-6-yl]-6-methyl-pyridine-2-carboxamide]"
0.1 to 5 nM,34.9%,71.95%,"COc1cc2nc(CCC(C)(C)O)cn2cc1NC(=O)c1cccc(CO)n1 [Compound 21, 6-(hydroxymethyl)-N-[2-(3-hydroxy-3-methyl-butyl)-7-methoxy-imidazo[1,2-a]pyridin-6-yl]pyridine-2-carboxamide]"
5 to 10 nM,–,106%,"COc1cc2nc(CCS(C)(=O)=O)cn2cc1NC(=O)c1cccn(C(F)F)c1=O [Compound 26, 1-(difluoromethyl)-N-[7-methoxy-2-(2-methylsulfonylethyl)imidazo[1,2-a]pyridin-6-yl]-2-oxo-pyridine-3-carboxamide]"
0.1 to 5 nM,–,–,"CC(C)(O)CCc1cn2cc(NC(=O)c3cccc(C(F)(F)F)n3)c(Br)cc2n1 [Compound 36, N-[7-bromo-2-(3-hydroxy-3-methyl-butyl)imidazo[1,2-a]pyridin-6-yl]-6-(trifluoromethyl)pyridine-2-carboxamide]"
5 to 10 nM,–,–,"CN1CC(NC(=O)c2cc3nc(CCC(C)(C)O)cn3cc2NC(=O)c2cccc(C(F)(F)F)n2)C1 [Compound 43, 2-(3-hydroxy-3-methylbutyl)-N-(1-methylazetidin-3-yl)-6-(6-(trifluoromethyl)picolinamido)imidazo[1,2-a]pyridine-7-carboxamide]"
